Measurements as given in patent US10765114B2, “4-amino-6-(pyridyl and 2-substitutedphenyl)-picolinates and 6-amino-2-(pyridyl and 2-substitutedphenyl)-pyrimidine-4-carboxylates and their use as herbicides” (Dow AgroSciences LLC, priority 2013, dated 2020).

Tests used:
[1] = system: LAMPU (purple deadnettle); experiment: Post-Emergent Test III (Wheat and Barley); assay type: in vivo, Lamium purpureum; settings: for GR50, LAMPU / GR80, LAMPU / GR90, LAMPU: probit analysis
Experimental: (§1) Seeds of the desired test plant species were planted in Sun Gro MetroMix® 306 planting mixture, which typically has a pH of 6.0 to 6.8 and an organic matter content of about 30 percent, in plastic pots with a surface area of 103.2 square centimeters (cm^2). When required to ensure good germination and healthy plants, a fungicide treatment and/or other chemical or physical treatment was applied. The plants were grown for 7-36 days in a greenhouse with an approximate 14 h photoperiod which was maintained at about 18° C. during the day and 17° C. during the night. Nutrients and water were added on a regular basis and supplemental lighting was provided with overhead metal halide 1000-Watt lamps as necessary. The plants were employed for testing when they reached the second or third true leaf stage.
(§2) A weighed amount, determined by the highest rate to be tested, of each test compound was placed in a 25 mL glass vial and was dissolved in 4 mL of a 97:3 v/v mixture of acetone and DMSO to obtain concentrated stock solutions. […] The concentrated stock solutions obtained were diluted with 20 mL of an aqueous mixture containing acetone, water, isopropyl alcohol, DMSO, Agri-Dex crop oil concentrate, and X-77 surfactant in a 48:39:10:1.5:1.5:0.02 v/v ratio to obtain spray solutions containing the highest application rates. Additional application rates were obtained by serial dilution of 12 mL of the high rate solution into a solution containing 2 mL of 97:3 v/v mixture of acetone and DMSO and 10 mL of an aqueous mixture containing acetone, water, isopropyl alcohol, DMSO, Agri-Dex crop oil concentrate, and X-77 surfactant in a 48:39:10:1.5:1.5:0.02 v/v ratio to obtain ½×, ¼×, ⅛× and 1/16× rates of the high rate. Compound requirements are based upon a 12 mL application volume at a rate of 187 liters per hectare (L/ha). Formulated compounds were applied to the plant material with an overhead Mandel track sprayer equipped with 8002E nozzles calibrated to deliver 187 L/ha over an application area of 0.503 square meters at a spray height of 18 inches (43 cm) above the average plant canopy height. Control plants were sprayed in the same manner with the solvent blank.
(§3) The treated plants and control plants were placed in a greenhouse as described above and watered by subirrigation to prevent wash-off of the test compounds. After 21 dAYS, the condition of the test plants as compared with that of the untreated plants was determined visually and scored on a scale of 0 to 100 percent where 0 corresponds to no injury and 100 corresponds to complete kill and presented as indicated in Table A.
(§4) By applying the well-accepted probit analysis as described by J. Berkson in Journal of the American Statistical Society, 48, 565 (1953) and by D. Finney in “Probit Analysis” Cambridge University Press (1952), herbicidal injury of a specific compound at various rates can be used to calculate GR10, GR20, GR50, GR80 and GR90 values, which are defined as growth reduction factors that correspond to the effective dose of herbicide required to provide plant growth reduction (GR) of 10 percent, 20 percent, 50 percent, 80 percent and 90 percent, respectively. Probit analysis was applied to data collected from multiple dose rates of individual compounds utilizing the procedures explained in the following examples. The analysis of those dose rates is captured in the following tables.

[2] = system: PHAMI (littleseed canarygrass); experiment: Post-Emergent Test III (Wheat and Barley); assay type: in vivo, Phalaris minor; settings: for Visual Growth Reduction (%) 21 Days After Application, PHAMI: postemergence
Experimental: as §1, §2, §3, §4

[3] = system: SASKR (Russian thistle); experiment: Post-Emergent Test III (Wheat and Barley); assay type: in vivo, Salsola tragus; settings: for GR50, SASKR / GR80, SASKR / GR90, SASKR: probit analysis
Experimental: as §1, §2, §3, §4

[4] = system: SINAR (wild mustard); experiment: Post-Emergent Test III (Wheat and Barley); assay type: in vivo, Sinapis arvensis; settings: for Visual Growth Reduction (%) 21 Days After Application, SINAR: postemergence
Experimental: as §1, §2, §3, §4

[5] = system: test plant species in Wheat and Barley; experiment: Post-Emergent Test III (Wheat and Barley), further species of Table 9; assay type: in vivo; settings: for Visual Growth Reduction (%) 21 Days After Application, CHEAL: CHEAL lambsquarters (Chenopodium album); for Visual Growth Reduction (%) 21 Days After Application, CHEAL / Visual Growth Reduction (%) 21 Days After Application, GALAP / Visual Growth Reduction (%) 21 Days After Application, STEME / Visual Growth Reduction (%) 21 Days After Application, VIOTR: post-emergent; for Visual Growth Reduction (%) 21 Days After Application, GALAP: GALAP cleavers (Galium aparine); for Visual Growth Reduction (%) 21 Days After Application, STEME: STEME common chickweed (Stellaria media); for Visual Growth Reduction (%) 21 Days After Application, VIOTR: VIOTR wild pansy (Viola tricolor)
Experimental: as §1, §2, §3, §4

[6] = effective dose for growth reduction of 50 percent
[7] = effective dose for growth reduction of 80 percent
[8] = effective dose for growth reduction of 90 percent
[9] = effective dose for growth reduction of 50 percent, probit analysis
[10] = effective dose for growth reduction of 80 percent, probit analysis
[11] = effective dose for growth reduction of 90 percent, probit analysis

Nc1c(F)c(-c2ccc(C(F)(F)F)nc2)nc(C(=O)O)c1Cl [Compound 46, 4-amino-5-chloro-3-fluoro-6′-(trifluoromethyl)-[2,3′-bipyridine]-6-carboxylic acid]
Visual Growth Reduction (%) 21 Days After Application, LAMPU ([1]; 35 g ai/ha, postemergence): D (60-74)
Visual Growth Reduction (%) 21 Days After Application, LAMPU ([1]; 70 g ai/ha, postemergence): D (60-74)
Visual Growth Reduction (%) 21 Days After Application, LAMPU ([1]; 140 g ai/ha, postemergence): A (95-100)
GR50, LAMPU [1, 6]: 14 g ai/ha
GR80, LAMPU [1, 7]: 47 g ai/ha
GR90, LAMPU [1, 8]: 89 g ai/ha
Visual Growth Reduction (%) 21 Days After Application, PHAMI ([2]; 35 g ai/ha): B (85-94)
Visual Growth Reduction (%) 21 Days After Application, PHAMI ([2]; 70 g ai/ha): B (85-94)
Visual Growth Reduction (%) 21 Days After Application, PHAMI ([2]; 140 g ai/ha): B (85-94)
GR50, PHAMI [2, 9]: 15 g ai/ha
GR80, PHAMI [2, 10]: 24 g ai/ha
GR90, PHAMI [2, 11]: 31 g ai/ha
Visual Growth Reduction (%) 21 Days After Application, SASKR ([3]; 35 g ai/ha, postemergence): E (45-59)
Visual Growth Reduction (%) 21 Days After Application, SASKR ([3]; 70 g ai/ha, postemergence): D (60-74)
Visual Growth Reduction (%) 21 Days After Application, SASKR ([3]; 140 g ai/ha, postemergence): D (60-74)
GR50, SASKR [3, 6]: 23 g ai/ha
GR80, SASKR [3, 7]: >140 g ai/ha
GR90, SASKR [3, 8]: >140 g ai/ha
Visual Growth Reduction (%) 21 Days After Application, SINAR ([4]; 35 g ai/ha): B (85-94)
Visual Growth Reduction (%) 21 Days After Application, SINAR ([4]; 70 g ai/ha): B (85-94)
Visual Growth Reduction (%) 21 Days After Application, SINAR ([4]; 140 g ai/ha): A (95-100)
GR50, SINAR [4, 9]: 2 g ai/ha
GR80, SINAR [4, 10]: 19 g ai/ha
GR90, SINAR [4, 11]: 62 g ai/ha

COC(=O)c1nc(-c2ccc(Br)nc2)c(F)c(N)c1Cl [Compound 22, methyl 4-amino-6′-bromo-5-chloro-3-fluoro-[2,3′-bipyridine]-6-carboxylate]
Visual Growth Reduction (%) 21 Days After Application, LAMPU ([1]; LAMPU purple deadnettle (Lamium purpureum), 17.5 g ai/ha, post-emergent): A (95-100)
Visual Growth Reduction (%) 21 Days After Application, LAMPU ([1]; LAMPU purple deadnettle (Lamium purpureum), 35 g ai/ha, post-emergent): A (95-100)
Visual Growth Reduction (%) 21 Days After Application, LAMPU ([1]; LAMPU purple deadnettle (Lamium purpureum), 70 g ai/ha, post-emergent): A (95-100)
GR50, LAMPU ([1]; LAMPU, growth reduction of 50%, 21 days): 1 g ai/ha
GR80, LAMPU ([1]; LAMPU, growth reduction of 80%, 21 days): 6 g ai/ha
GR90, LAMPU ([1]; LAMPU, growth reduction of 90%, 21 days): 11 g ai/ha
Visual Growth Reduction (%) 21 Days After Application, SASKR ([3]; SASKR Russian thistle (Salsola iberica), 17.5 g ai/ha, post-emergent): C (75-84)
Visual Growth Reduction (%) 21 Days After Application, SASKR ([3]; SASKR Russian thistle (Salsola iberica), 35 g ai/ha, post-emergent): C (75-84)
Visual Growth Reduction (%) 21 Days After Application, SASKR ([3]; SASKR Russian thistle (Salsola iberica), 70 g ai/ha, post-emergent): B (85-94)
GR50, SASKR ([3]; SASKR, growth reduction of 50%, 21 days): 5 g ai/ha
GR80, SASKR ([3]; SASKR, growth reduction of 80%, 21 days): 36 g ai/ha
GR90, SASKR ([3]; SASKR, growth reduction of 90%, 21 days): 95 g ai/ha
Visual Growth Reduction (%) 21 Days After Application, CHEAL ([5]; 17.5 g ai/ha): A (95-100)
Visual Growth Reduction (%) 21 Days After Application, CHEAL ([5]; 35 g ai/ha): A (95-100)
Visual Growth Reduction (%) 21 Days After Application, CHEAL ([5]; 70 g ai/ha): A (95-100)
GR50, CHEAL ([5]; CHEAL, growth reduction of 50%, probit analysis, 21 days): 2 g ai/ha
GR80, CHEAL ([5]; CHEAL, growth reduction of 80%, probit analysis, 21 days): 6 g ai/ha
GR90, CHEAL ([5]; CHEAL, growth reduction of 90%, probit analysis, 21 days): 11 g ai/ha
Visual Growth Reduction (%) 21 Days After Application, GALAP ([5]; 17.5 g ai/ha): D (60-74)
Visual Growth Reduction (%) 21 Days After Application, GALAP ([5]; 35 g ai/ha): B (85-94)
Visual Growth Reduction (%) 21 Days After Application, GALAP ([5]; 70 g ai/ha): A (95-100)
GR50, GALAP ([5]; GALAP, growth reduction of 50%, probit analysis, 21 days): 11 g ai/ha
GR80, GALAP ([5]; GALAP, growth reduction of 80%, probit analysis, 21 days): 24 g ai/ha
GR90, GALAP ([5]; GALAP, growth reduction of 90%, probit analysis, 21 days): 36 g ai/ha
Visual Growth Reduction (%) 21 Days After Application, STEME ([5]; 17.5 g ai/ha): F (30-44)
Visual Growth Reduction (%) 21 Days After Application, STEME ([5]; 35 g ai/ha): E (45-59)
Visual Growth Reduction (%) 21 Days After Application, STEME ([5]; 70 g ai/ha): D (60-74)
GR50, STEME ([5]; STEME, growth reduction of 50%, probit analysis, 21 days): 28 g ai/ha
GR80, STEME ([5]; STEME, growth reduction of 80%, probit analysis, 21 days): >140 g ai/ha
GR90, STEME ([5]; STEME, growth reduction of 90%, probit analysis, 21 days): >140 g ai/ha
Visual Growth Reduction (%) 21 Days After Application, VIOTR ([5]; 17.5 g ai/ha): A (95-100)
Visual Growth Reduction (%) 21 Days After Application, VIOTR ([5]; 35 g ai/ha): A (95-100)
Visual Growth Reduction (%) 21 Days After Application, VIOTR ([5]; 70 g ai/ha): A (95-100)
GR50, VIOTR ([5]; VIOTR, growth reduction of 50%, probit analysis, 21 days): 4 g ai/ha
GR80, VIOTR ([5]; VIOTR, growth reduction of 80%, probit analysis, 21 days): 7 g ai/ha
GR90, VIOTR ([5]; VIOTR, growth reduction of 90%, probit analysis, 21 days): 9 g ai/ha
